# Read-outs that look alike come from different tables or passages of the source.
# Key:
# [1] = acetonitrile, in terms of the desolvate
# Description: In the present invention, the term “supersaturation concentration: Cx (g/100 g)” means the degree of supersaturation state and it is represented by the following formula. Cx=C−Cs
# Where, C (g/100 g) indicates the mass (in terms of the desolvate) of Compound B dissolved in 100 g of a solvent.
# Cs (g/100 g) indicates the saturation solubility (in terms of the desolvate) of Compound B dissolved in 100 g of a solvent under the temperature at the time of occurrence of spontaneous nucleation or addition of seed crystal.
# A predetermined amount of Compound A was dissolved in a predetermined amount of acetonitrile, crystallization was carried out at various supersaturation concentrations, and the obtained crystals were analyzed with a powder X-ray diffractometer.
# [2] = in acetonitrile, stirred for 30 minutes
# Experimental: In the present invention, the term “solvent mediated transformation” means transformation of a crystal into another crystal form in the presence of a solvent. For example, it means that at a predetermined temperature, the crystal of Compound B is transformed into the type I crystal of Compound A in a solvent.
# The crystal of Compound B was added to acetonitrile in an amount of not less than the supersaturation concentration at a predetermined temperature (in a state where not all the added crystals are dissolved and some crystals are present), stirred for 30 minutes, and then the crystal was filtered and measured with a powder X-ray diffractometer.
# [3] = Stability of Compound A in a solvent by high-performance liquid chromatography; format: physicochemical; design: key to Chemical stability (*2): ◯: the one that did not have a peak other than that of Compound A (there is no degradation product); X: the one that had a peak other than that of Compound A (there is a degradation product); settings: 50° C. for 1000 minutes, HPLC; for Chemical stability (*2): 2-fold volume
# Experimental: (2) In order to investigate the stability of Compound A in a solvent, a 2-fold volume (the volume of a solvent (ml)/the weight of a dissolved substance (g)) of a solvent was added to Compound A, the mixture was maintained at 50° C. for 1000 minutes, and then the stability of the compound was investigated by high-performance liquid chromatography.
# (§1) The results of the (1) described above are shown in the column of *1 of Table 2 and the results of the (2) described above are shown in the column of *2 of Table 2.
# [4] = Investigation on solvent for crystallization: whether Compound A is dissolved in a solvent; format: physicochemical; settings: organic solvent or mixture, thermodynamic from solid, 3 ml solvent to 50 mg
# Experimental: (1) By adding 3 ml of a solvent to 50 mg of Compound A, it was investigated whether Compound A is dissolved or not.
# as §1
structure (smiles),measurement,setting,value
"CC#N.Cc1oc(=O)oc1CN1CCN(c2cc3c(cc2F)c(=O)c(C(=O)O)c2n3C(C)S2)CC1 (stereo not drawn) [Compound B, 6-fluoro-1-methyl-7-[4-(5-methyl-2-oxo-1,3-dioxolen-4-yl)-methyl-1-piperazinyl]-4-oxo-4H-[1,3]thiazeto[3,2-a]quinoline-3-carboxylic acid acetonitrile solvate]",Solubility at the time of occurrence of spontaneous nucleation or addition of seed crystals (Cs),[1]; 0 ° C.,0.07 g/100 g
same,Solubility at the time of occurrence of spontaneous nucleation or addition of seed crystals (Cs),[1]; 14.3 ° C.,0.16 g/100 g
same,Solubility at the time of occurrence of spontaneous nucleation or addition of seed crystals (Cs),[1]; 17 ° C.,0.19 g/100 g
same,Solubility at the time of occurrence of spontaneous nucleation or addition of seed crystals (Cs),[1]; 25 ° C.,0.29 g/100 g
same,Solubility at the time of occurrence of spontaneous nucleation or addition of seed crystals (Cs),[1]; 27 ° C.,0.32 g/100 g
same,Solubility at the time of occurrence of spontaneous nucleation or addition of seed crystals (Cs),[1]; 30 ° C.,0.38 g/100 g
same,Solubility at the time of occurrence of spontaneous nucleation or addition of seed crystals (Cs),[1]; 45 ° C.,0.79 g/100 g
same,Solubility at the time of occurrence of spontaneous nucleation or addition of seed crystals (Cs),[1]; 50 ° C.,1.00 g/100 g
same,Solubility at the time of occurrence of spontaneous nucleation or addition of seed crystals (Cs),[1]; 55 ° C.,1.25 g/100 g
same,Solubility at the time of occurrence of spontaneous nucleation or addition of seed crystals (Cs),[1]; 65 ° C.,1.92 g/100 g
same,Solubility at the time of occurrence of spontaneous nucleation or addition of seed crystals (Cs),[1]; 70 ° C.,2.36 g/100 g
same,Crystal form,[2]; 25 ° C.,Not changed
same,Crystal form,[2]; 40 ° C.,Not changed
same,Crystal form,[2]; 55 ° C.,Not changed
same,Crystal form,[2]; 67 ° C.,Not changed
"Cc1oc(=O)oc1CN1CCN(c2cc3c(cc2F)c(=O)c(C(=O)O)c2n3C(C)S2)CC1 (stereo not drawn) [Compound A, 6-fluoro-1-methyl-7-[4-(5-methyl-2-oxo-1,3-dioxolen-4-yl)-methyl-1-piperazinyl]-4-oxo-4H-[1,3]thiazeto[3,2-a]quinoline-3-carboxylic acid]",degradation product in solvent,"[3]; formic acid, acetic acid and aniline",a degradation product of Compound A was observed
same,Chemical stability (*2),[3]; solvent 2-ethoxy ethanol,X
same,Chemical stability (*2),[3]; solvent acetic acid,X
same,Chemical stability (*2),[3]; solvent acetic anhydride,X
same,Chemical stability (*2),[3]; solvent acetonitrile,◯
same,Chemical stability (*2),[3]; solvent aniline,X
same,Chemical stability (*2),[3]; solvent formic acid,X
same,Chemical stability (*2),[3]; solvent methanol,X
same,Chemical stability (*2),[3]; solvent phenol,X
same,solubility,[4]; solvent 1-butanol,≤ 16.7 mg/mL
same,solubility,"[4]; solvent 2-ethoxy ethanol, read-out: Solubility (*1)",≥ 16.7 mg/mL
same,solubility,"[4]; solvent 2-propanol, read-out: Solubility (*1)",≤ 16.7 mg/mL
same,solubility,"[4]; solvent N,N-dimethylformamide, read-out: Solubility (*1)",> 16.7 mg/mL
same,solubility,"[4]; solvent acetic acid, read-out: Solubility (*1)",> 16.7 mg/mL
same,solubility,"[4]; solvent acetic anhydride, read-out: Solubility (*1)",≥ 16.7 mg/mL
same,solubility,"[4]; solvent acetone, read-out: Solubility (*1)",≤ 16.7 mg/mL
same,solubility,"[4]; solvent acetonitrile, read-out: Solubility (*1)",≥ 16.7 mg/mL
same,solubility,"[4]; solvent aniline, read-out: Solubility (*1)",> 16.7 mg/mL
same,solubility,"[4]; solvent benzene, read-out: Solubility (*1)",≤ 16.7 mg/mL
same,solubility,"[4]; solvent carbon tetrachloride, read-out: Solubility (*1)",≤ 16.7 mg/mL
same,solubility,"[4]; solvent chloroacetonitrile, read-out: Solubility (*1)",> 16.7 mg/mL
same,solubility,"[4]; solvent chloroform, read-out: Solubility (*1)",≤ 16.7 mg/mL
same,solubility,"[4]; solvent cresol, read-out: Solubility (*1)",≤ 16.7 mg/mL
same,solubility,"[4]; solvent dibutyl ether, read-out: Solubility (*1)",≤ 16.7 mg/mL
same,solubility,"[4]; solvent diisopropyl ether, read-out: Solubility (*1)",≤ 16.7 mg/mL
same,solubility,"[4]; solvent dioxane, read-out: Solubility (*1)",≤ 16.7 mg/mL
same,solubility,"[4]; solvent diphenyl ether, read-out: Solubility (*1)",≤ 16.7 mg/mL
same,solubility,"[4]; solvent ethanol, read-out: Solubility (*1)",≤ 16.7 mg/mL
same,solubility,"[4]; solvent ethyl acetate, read-out: Solubility (*1)",≤ 16.7 mg/mL
same,solubility,"[4]; solvent formamide, read-out: Solubility (*1)",≤ 16.7 mg/mL
same,solubility,"[4]; solvent formic acid, read-out: Solubility (*1)",> 16.7 mg/mL
same,solubility,"[4]; solvent glycerin, read-out: Solubility (*1)",≤ 16.7 mg/mL
same,solubility,"[4]; solvent heptane, read-out: Solubility (*1)",≤ 16.7 mg/mL
same,solubility,"[4]; solvent hexane, read-out: Solubility (*1)",≤ 16.7 mg/mL
same,solubility,"[4]; solvent isobutyl alcohol, read-out: Solubility (*1)",≤ 16.7 mg/mL
same,solubility,"[4]; solvent isopropyl acetate, read-out: Solubility (*1)",≤ 16.7 mg/mL
same,solubility,"[4]; solvent ligroin, read-out: Solubility (*1)",≤ 16.7 mg/mL
same,solubility,"[4]; solvent methanol, read-out: Solubility (*1)",≤ 16.7 mg/mL
same,solubility,"[4]; solvent methyl acetate, read-out: Solubility (*1)",≤ 16.7 mg/mL
same,solubility,"[4]; solvent methyl ethyl ketone, read-out: Solubility (*1)",≤ 16.7 mg/mL
same,solubility,"[4]; solvent methylcyclohexane, read-out: Solubility (*1)",≤ 16.7 mg/mL
same,solubility,"[4]; solvent nitromethane, read-out: Solubility (*1)",> 16.7 mg/mL
same,solubility,"[4]; solvent p-cymene, read-out: Solubility (*1)",≤ 16.7 mg/mL
same,solubility,"[4]; solvent petroleum ether, read-out: Solubility (*1)",≤ 16.7 mg/mL
same,solubility,"[4]; solvent phenol, read-out: Solubility (*1)",≥ 16.7 mg/mL
same,solubility,"[4]; solvent pyridine, read-out: Solubility (*1)",> 16.7 mg/mL
same,solubility,"[4]; solvent tetrachloroethylene, read-out: Solubility (*1)",≤ 16.7 mg/mL
same,solubility,"[4]; solvent tetrahydrofuran, read-out: Solubility (*1)",≤ 16.7 mg/mL
same,solubility,"[4]; solvent toluene, read-out: Solubility (*1)",≤ 16.7 mg/mL
same,solubility,"[4]; solvent trichloroethylene, read-out: Solubility (*1)",≤ 16.7 mg/mL
same,solubility,"[4]; solvent xylene, read-out: Solubility (*1)",≤ 16.7 mg/mL

# — patent publication US7612205B2, “Crystals of quinolinecarboxylic acid derivative solvate” (Nippon Shinyaku Co., Ltd., priority 2003, dated 2009)
